Measurements published in patent publication US20260265216A1, “NOVEL THIOREDOXIN REDUCTASE INHIBITORS” (GENEXPLAIN GMBH, priority 2021, published 2026).

Key:
[1] = target: T1, recombinant purified TrxR1 (Homo sapiens, UniProt Q16881); assay: TrxR1 enzymatic activity measurement in vitro; format: biochemical; settings: recombinant purified enzyme in vitro
T1 construct: made in house; host or cells: Release Factor 1-depleted E. coli strain
T1 sequence (Q16881 1-499 isoform Q16881-5): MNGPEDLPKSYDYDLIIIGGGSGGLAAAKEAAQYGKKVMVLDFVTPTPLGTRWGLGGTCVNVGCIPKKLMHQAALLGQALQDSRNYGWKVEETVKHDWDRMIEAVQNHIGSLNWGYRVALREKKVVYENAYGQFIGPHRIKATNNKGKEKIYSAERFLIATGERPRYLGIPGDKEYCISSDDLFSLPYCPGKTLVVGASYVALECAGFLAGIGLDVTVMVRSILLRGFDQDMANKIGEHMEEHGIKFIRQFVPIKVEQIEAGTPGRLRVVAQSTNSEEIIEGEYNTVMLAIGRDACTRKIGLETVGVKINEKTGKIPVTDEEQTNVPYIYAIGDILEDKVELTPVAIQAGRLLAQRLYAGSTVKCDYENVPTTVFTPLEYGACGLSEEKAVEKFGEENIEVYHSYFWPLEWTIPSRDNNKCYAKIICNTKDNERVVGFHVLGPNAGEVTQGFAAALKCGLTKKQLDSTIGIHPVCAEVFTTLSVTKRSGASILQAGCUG
Method: TrxR1 enzyme was recombinantly produced with high Sec contents in a specific Release Factor 1-depleted E. coli strain and purified as previously described (Arnér E S J, Holmgren A, in Current Protocols in Toxicology, Maines M, Costa L, Reed D, Sassa S, Eds. (John Wiley & Sons, Inc., New York, 2000), pp. 7.4.1-7.4.14). TrxR1 and GSR (Sigma) recombinant enzyme assays were performed in a reaction buffer containing 50 mM Tris pH 7.5 with 2 mM EDTA and 0.1 mg/mL bovine serum albumin as described previously (Arnér E S J, Holmgren A, in Current Protocols in Toxicology, Maines M, Costa L, Reed D, Sassa S, Eds. (John Wiley & Sons, Inc., New York, 2000), pp. 7.4.1-7.4.14). Briefly, assays were performed in triplicate using 96-well plates, with activity inferred from absorbance changes using a Spectra Max plate reader. Results of recombinant enzyme assays were normalized to DMSO and to no enzyme controls.
We used recombinant purified TrxR1 and GR in an in vitro assay as described in methods section.

B16 melanoma = B16 melanoma mouse model; format: in vivo, C57BL/6 mice; settings: 10 mg/kg i.p. every other day for 9 days, day 8 and day 9
Method: For the B16 melanoma mouse model, 6-weeks-old female C57BL/6 mice were injected subcutaneously with 1×10^6 B16 cells. When the tumors reached 80-120 mm^3, 10 mg/kg of 1d*HCl were administered intraperitoneally every other day for 9 days (days 1, 3, 5, 7, 9). Tumor volume was measured by caliper three times per week, and the volume was calculated based on the formula (in ml): L/10*W/10*W/10*0.44 (L-length, W=width of tumor). Mice were sacrificed when tumors reached 2 cm^3 or upon bleeding.
We tested the anti-tumor activity of 1d*HCl using allogenic model of B16 mice. We inoculated mice with B16 melanoma cells. When the tumors reached 100 mm^3, we treated them with i.p. injection of 1d*HCl, 10 mg/kg every other day for 9 days. […] The differences in tumor volume between untreated control mice and animals treated with 1d*HCl are all statistically significant. Thus, 1d*HCl has in vivo anti-tumor activity in this animal tumor model.

[2] = Growth suppression with selenium in culture medium; format: cell-based; settings: selenium added to culture medium
From the text: To find out whether the inhibition of TrxR1 is the major mechanism of action of 1d*HCl, we addressed the question, whether stimulation of TrxR1 activity will decrease the growth suppression activity of 1d*HCl. Since TrxR is a selenium-containing enzyme and the concentration of selenium is rate-limiting for TrxR1, we added selenium to culture medium to test whether selenium will alleviate the growth suppression by 1d*HCl.

OVCAR3 = assay: Growth suppression, cancer cell line panel (resazurin); format: cell-based; settings: OVCAR3, 0.4-25.6 μM, 48 hours
Method: (§1) Breast, colon, ovarian, cervical, liver and lung carcinoma cell lines were grown in DMEM supplemented with 10% FBS, and antibiotics were cultured at 37° C. and 5% CO2. Osteosarcoma, melanoma, lymphoma, neuroblastoma and leukemia cell lines were cultured in RPMI 1640 with 10% FBS and antibiotics. An oxygen concentration of 0.3% was obtained by flushing a sealed box containing the cells with premixed gas composed of 95% nitrogen (N2) and 5% CO2 (AGA AB, Sweden). To obtain an oxygen concentration of 0.05%, the cells were flushed with the premixed gas continuously throughout the experiment.
(§2) Cells were grown in 96-well plates at a density of 3000 cells per well with or without doxycycline and treated with compounds. After 48 hours of incubation the proliferative cell reagent resazurin (Thermo Fisher Scientific) was added to the cells. The degree of resazurin reduction, which reflects cell viability, was measured by microplate reader by monitoring the absorbance at 570 nm and 600 nm, according to the manufacturer.
(§3) The panel of cancer cell lines, including carcinomas of breast (MDA-MB231, SKBR3, T47D, MCF7; BT549, BT20, MDA-MB468), colon, (SW480, RKO, HT29, HCT116) ovarian (OVCAR3, OVCAR4, OVCAR8), cervical (SW756, C33A), liver (HEPG2) and lung (H23), osteosarcoma (SJSA and U2OS), melanoma (ME180), lymphoma (Raji, HDLM2), neuroblastoma (SKNAS, IMR32) and leukemia (NB4, K562) were treated with increasing concentrations of 1d*HCl: 0.4; 0.8; 1.6; 3.2; 6.4; 12.8; 25.6 μM in 96-well plates. After 48 hours of incubation the proliferative cell reagent resazurin was added to the cells. The degree of resazurin reduction, which reflects cell viability, was measured by microplate reader by monitoring the absorbance at 570 nm and 600 nm, according to the manufacturer, and the IC50 and AUC (area under curve) were determined (Table 2). As could be seen in Table 2, 1d*HCl suppressed the growth of cancer cell lines of a different origin, including carcinomas, osteosarcomas, melanoma, lymphoma, leukemia and neuroblastoma. These findings open up a possibility of the application of the present invention in anti-cancer therapy in a broad range of tumor types.

C33A = assay: as above; format: cell-based; settings: 0.4-25.6 μM, 48 hours
Method: as §1, §2, §3

IMR32 = assay: as above; format: cell-based; settings: IMR32, 0.4-25.6 μM, 48 hours
Method: as §1, §2, §3

U2OS = assay: as above; format: cell-based; settings: 0.4-25.6 μM, 48 hours
Method: as §1, §2, §3

OVCAR4 = assay: as above; format: cell-based; settings: OVCAR4, 0.4-25.6 μM, 48 hours
Method: as §1, §2, §3

Cl.N#Cc1c(-c2cccnc2)[n+]([O-])c2cc(F)c(N3CCOCC3)cc2[n+]1[O-] [Compound 1d*HCl, 6-Fluoro-7-(morpholin-4-yl)-3-(pyridin-3-yl)quinoxaline-2-carbonitrile-1,4-dioxide hydrochloride]
inhibition of enzymatic activity of TrxR1 [1]: efficiently inhibited the enzymatic activity of TrxR1 in a dose- and time-dependent manner
tumor volume compared to vehicle-treated mice (B16 melanoma): lower volume of tumors
growth suppression in the presence of selenium [2]: less efficient in the presence of selenium
AUC (area under curve) (OVCAR3): 4.813
AUC (area under curve) (C33A): 21
AUC (area under curve) (IMR32): 6.40
AUC (area under curve) (U2OS): 2.10
AUC (area under curve) (OVCAR4): 3.7
